{"source": "ChEMBL document CHEMBL1145390", "about": "“Synthesis and preliminary biological characterization of new semisynthetic derivatives of ramoplanin” (J Med Chem, 2007)", "key": {"[1]": {"test_system": "Enterococcus faecalis", "test": "Antibacterial activity against Enterococcus faecalis after 24 hrs by broth microdilution method", "type": "functional", "settings": "read-out: MIC"}, "[2]": {"test_system": "Staphylococcus aureus", "test": "Antibacterial activity against Staphylococcus aureus Smith after 24 hrs by broth microdilution method", "type": "functional", "settings": "read-out: MIC"}, "[3]": {"test_system": "Staphylococcus aureus", "test": "Antibacterial activity against methicillin-resistant Staphylococcus aureus clinical isolate after 24 hrs by broth microdilution method", "type": "functional", "settings": "read-out: MIC"}, "[4]": {"test_system": "Staphylococcus aureus", "test": "Antibacterial activity against methicillin-resistant and vancomycin-intermediate resistant Staphylococcus aureus clinical isolate after 24 hrs by broth microdilution method", "type": "functional", "settings": "read-out: MIC"}, "[5]": {"test_system": "Staphylococcus aureus", "test": "Antibacterial activity against vancomycin-intermediate resistant Staphylococcus aureus clinical isolate after 24 hrs by broth microdilution method", "type": "functional"}, "[6]": {"test_system": "Streptococcus pyogenes", "test": "Antibacterial activity against Streptococcus pyogenes C203 after 24 hrs by broth microdilution method", "type": "functional", "settings": "C203, 24 h, read-out: MIC"}, "[7]": {"test_system": "Enterococcus faecalis", "test": "Antibacterial activity against vancomycin A-resistant Enterococcus faecalis after 24 hrs by broth microdilution method", "type": "functional", "settings": "read-out: MIC"}, "[8]": {"test_system": "Enterococcus faecium", "test": "Antibacterial activity against Enterococcus faecium after 24 hrs by broth microdilution method", "type": "functional", "settings": "read-out: MIC"}, "[9]": {"test_system": "Enterococcus faecium", "test": "Antibacterial activity against vancomycin A-resistant Enterococcus faecium clinical isolate after 24 hrs by broth microdilution method", "type": "functional", "settings": "read-out: MIC"}, "[10]": {"test_system": "Escherichia coli", "test": "Antibacterial activity against Escherichia coli SKF-12140 after 24 hrs by broth microdilution method", "type": "functional", "settings": "read-out: MIC"}, "[11]": {"test_system": "Candida albicans", "test": "Antifungal activity against Candida albicans SKF-2270 after 24 hrs by broth microdilution method", "type": "functional", "settings": "read-out: MIC"}, "[12]": {"test": "Toxicity assessed as hemolysis in erythrocytes at 180 mg/L", "type": "cell-based, Erythrocyte", "settings": "human, erythrocytes; read-out: Activity"}, "[13]": {"test": "Toxicity assessed as hemolysis in erythrocytes at 90 mg/L", "type": "cell-based, Erythrocyte", "settings": "human, erythrocytes; read-out: Activity"}}, "data": [{"smiles": "CC(C)C[C@@H]1NC(=O)CNC(=O)[C@H](c2ccc(O)cc2)NC(=O)[C@@H]([C@@H](C)O)NC(=O)[C@H](c2ccc(O[C@H]3O[C@H](CO)[C@@H](O)[C@H](O)[C@@H]3O[C@H]3O[C@H](CO)[C@@H](O)[C@H](O)[C@@H]3O)cc2)NC(=O)[C@@H](CCCN)NC(=O)[C@H](Cc2ccccc2)NC(=O)[C@H]([C@@H](C)O)NC(=O)[C@@H](c2ccc(O)cc2)NC(=O)[C@H](c2ccc(O)cc2)NC(=O)[C@@H](C(C)C)NC(=O)[C@@H](CCCN)NC(=O)[C@@H](c2ccc(O)cc2)NC(=O)[C@@H](CNC(=O)[C@H](CC(N)=O)NC(=O)c2ccc(OCc3cccc(Cl)c3)cc2)[C@@H](C(N)=O)OC(=O)[C@H](c2ccc(O)c(Cl)c2)NC(=O)[C@@H](C)NC1=O", "values": [{"measurement": "MIC", "setting": "[1]", "result": 0.5, "unit": "µg/mL"}, {"measurement": "MIC", "setting": "[2]", "result": 1, "unit": "µg/mL"}, {"measurement": "MIC", "setting": "[3]", "result": 2, "unit": "µg/mL"}, {"measurement": "MIC", "setting": "[4]", "result": 8, "unit": "µg/mL"}, {"measurement": "MIC", "setting": "[5]", "result": 8, "unit": "µg/mL"}, {"measurement": "MIC", "setting": "[6]", "result": 0.13, "unit": "µg/mL"}, {"measurement": "MIC", "setting": "[7]", "result": 0.13, "unit": "µg/mL"}, {"measurement": "MIC", "setting": "[8]", "result": 0.5, "unit": "µg/mL"}, {"measurement": "MIC", "setting": "[9]", "result": 0.25, "unit": "µg/mL"}, {"measurement": "MIC", "setting": "[10]", "result": "> 32", "unit": "µg/mL"}, {"measurement": "MIC", "setting": "[11]", "result": "> 32", "unit": "µg/mL"}, {"measurement": "hemolysis at 180 mg/L", "setting": "[12]", "result": 100, "unit": "%"}, {"measurement": "hemolysis at 90 mg/L", "setting": "[13]", "result": 25, "unit": "%"}]}, {"smiles": "CCCCCCC(=O)N[C@@H](CC(N)=O)C(=O)NC[C@@H]1C(=O)N[C@H](c2ccc(O)cc2)C(=O)N[C@H](CCCN)C(=O)N[C@H](C(C)C)C(=O)N[C@@H](c2ccc(O)cc2)C(=O)N[C@H](c2ccc(O)cc2)C(=O)N[C@@H]([C@@H](C)O)C(=O)N[C@@H](Cc2ccccc2)C(=O)N[C@H](CCCN)C(=O)N[C@@H](c2ccc(O[C@H]3O[C@H](CO)[C@@H](O)[C@H](O)[C@@H]3O[C@H]3O[C@H](CO)[C@@H](O)[C@H](O)[C@@H]3O)cc2)C(=O)N[C@H]([C@@H](C)O)C(=O)N[C@@H](c2ccc(O)cc2)C(=O)NCC(=O)N[C@@H](CC(C)C)C(=O)N[C@H](C)C(=O)N[C@@H](c2ccc(O)c(Cl)c2)C(=O)O[C@@H]1C(N)=O", "values": [{"measurement": "MIC", "setting": "[1]", "result": 0.5, "unit": "µg/mL"}, {"measurement": "MIC", "setting": "[2]", "result": 1, "unit": "µg/mL"}, {"measurement": "MIC", "setting": "[3]", "result": 1, "unit": "µg/mL"}, {"measurement": "MIC", "setting": "[4]", "result": 8, "unit": "µg/mL"}, {"measurement": "MIC", "setting": "[5]", "result": 4, "unit": "µg/mL"}, {"measurement": "MIC", "setting": "[6]", "result": "< 0.03", "unit": "µg/mL"}, {"measurement": "MIC", "setting": "[7]", "result": 0.5, "unit": "µg/mL"}, {"measurement": "MIC", "setting": "[8]", "result": 1, "unit": "µg/mL"}, {"measurement": "MIC", "setting": "[9]", "result": 1, "unit": "µg/mL"}, {"measurement": "MIC", "setting": "[10]", "result": "> 32", "unit": "µg/mL"}, {"measurement": "MIC", "setting": "[11]", "result": "> 32", "unit": "µg/mL"}, {"measurement": "hemolysis at 180 mg/L", "setting": "[12]", "result": 1, "unit": "%"}, {"measurement": "hemolysis at 90 mg/L", "setting": "[13]", "result": 2, "unit": "%"}]}, {"smiles": "COc1ccc(CC(=O)N[C@@H](CC(N)=O)C(=O)NC[C@@H]2C(=O)N[C@H](c3ccc(O)cc3)C(=O)N[C@H](CCCN)C(=O)N[C@H](C(C)C)C(=O)N[C@@H](c3ccc(O)cc3)C(=O)N[C@H](c3ccc(O)cc3)C(=O)N[C@@H]([C@@H](C)O)C(=O)N[C@@H](Cc3ccccc3)C(=O)N[C@H](CCCN)C(=O)N[C@@H](c3ccc(O[C@H]4O[C@H](CO)[C@@H](O)[C@H](O)[C@@H]4O[C@H]4O[C@H](CO)[C@@H](O)[C@H](O)[C@@H]4O)cc3)C(=O)N[C@H]([C@@H](C)O)C(=O)N[C@@H](c3ccc(O)cc3)C(=O)NCC(=O)N[C@@H](CC(C)C)C(=O)N[C@H](C)C(=O)N[C@@H](c3ccc(O)c(Cl)c3)C(=O)O[C@@H]2C(N)=O)cc1", "values": [{"measurement": "MIC", "setting": "[1]", "result": 8, "unit": "µg/mL"}, {"measurement": "MIC", "setting": "[2]", "result": 8, "unit": "µg/mL"}, {"measurement": "MIC", "setting": "[3]", "result": 8, "unit": "µg/mL"}, {"measurement": "MIC", "setting": "[4]", "result": 32, "unit": "µg/mL"}, {"measurement": "MIC", "setting": "[5]", "result": 32, "unit": "µg/mL"}, {"measurement": "MIC", "setting": "[6]", "result": 0.125, "unit": "µg/mL"}, {"measurement": "MIC", "setting": "[7]", "result": 8, "unit": "µg/mL"}, {"measurement": "MIC", "setting": "[8]", "result": 16, "unit": "µg/mL"}, {"measurement": "MIC", "setting": "[9]", "result": 8, "unit": "µg/mL"}, {"measurement": "MIC", "setting": "[10]", "result": "> 32", "unit": "µg/mL"}, {"measurement": "MIC", "setting": "[11]", "result": "> 32", "unit": "µg/mL"}, {"measurement": "hemolysis at 180 mg/L", "setting": "[12]", "result": 0, "unit": "%"}, {"measurement": "hemolysis at 90 mg/L", "setting": "[13]", "result": 0, "unit": "%"}]}, {"smiles": "CC(C)C[C@@H]1NC(=O)CNC(=O)[C@H](c2ccc(O)cc2)NC(=O)[C@@H]([C@@H](C)O)NC(=O)[C@H](c2ccc(O[C@H]3O[C@H](CO)[C@@H](O)[C@H](O)[C@@H]3O[C@H]3O[C@H](CO)[C@@H](O)[C@H](O)[C@@H]3O)cc2)NC(=O)[C@@H](CCCN)NC(=O)[C@H](Cc2ccccc2)NC(=O)[C@H]([C@@H](C)O)NC(=O)[C@@H](c2ccc(O)cc2)NC(=O)[C@H](c2ccc(O)cc2)NC(=O)[C@@H](C(C)C)NC(=O)[C@@H](CCCN)NC(=O)[C@@H](c2ccc(O)cc2)NC(=O)[C@@H](CNC(=O)[C@H](CC(N)=O)NC(=O)c2ccc(C#N)cc2)[C@@H](C(N)=O)OC(=O)[C@H](c2ccc(O)c(Cl)c2)NC(=O)[C@@H](C)NC1=O", "values": [{"measurement": "MIC", "setting": "[1]", "result": 4, "unit": "µg/mL"}, {"measurement": "MIC", "setting": "[2]", "result": 8, "unit": "µg/mL"}, {"measurement": "MIC", "setting": "[3]", "result": 4, "unit": "µg/mL"}, {"measurement": "MIC", "setting": "[4]", "result": 32, "unit": "µg/mL"}, {"measurement": "MIC", "setting": "[5]", "result": 32, "unit": "µg/mL"}, {"measurement": "MIC", "setting": "[6]", "result": 0.06, "unit": "µg/mL"}, {"measurement": "MIC", "setting": "[7]", "result": 8, "unit": "µg/mL"}, {"measurement": "MIC", "setting": "[8]", "result": 8, "unit": "µg/mL"}, {"measurement": "MIC", "setting": "[9]", "result": 4, "unit": "µg/mL"}, {"measurement": "MIC", "setting": "[10]", "result": "> 32", "unit": "µg/mL"}, {"measurement": "MIC", "setting": "[11]", "result": "> 32", "unit": "µg/mL"}, {"measurement": "hemolysis at 180 mg/L", "setting": "[12]", "result": 3, "unit": "%"}, {"measurement": "hemolysis at 90 mg/L", "setting": "[13]", "result": 2, "unit": "%"}]}]}
